Experimental data taken from patent publication US12023348B2, “EGR1 targeting molecules for the treatment of inflammatory and hyperproliferative conditions” (The Medical Research, Infrastructure and Health Services …, priority 2015, dated 2024).

Tests used:
Format in all cases: cell-based, human
[1] = test system: SAMD9; test: SAMD9 RNA expression by qRT-PCR in HeLa cells; settings: for SAMD9 expression in HeLa cells: 5 μM, 24 hours, qRT-PCR vs DMSO (FIG. 1C); for SAMD9 expression fold change in HeLa cells: fold increase in RNA gene expression vs cells treated with vehicle only
Experimental: HeLa cells were cultured in DMEM 4.5 g/l glucose medium containing 10% FCS, 1% L-glutamine and 1% penicillin and streptomycin (Biological Industries) and grown at 37° C. and 5% CO2.
(§1) Of note, when cells were incubated with CaCx and ApDx (NCI, MA USA), they were grown in the appropriate medium with 0.1% FCS only.
(§2) RNA was extracted from cell cultures using an RNA extraction kit (Roche Diagnostics, Mahheim, Germany). cDNA was synthesized from 500 ng of total RNA using the Verso cDNA kit (Thermo Fisher Scientific, Waltham, MA, USA). cDNA PCR amplification was carried out using the Fast SYBR Green Master Mix in a StepOnePlus™ Real-Time PCR System (Applied Biosystems, Foster City, CA, USA) with gene-specific intron-crossing oligonucleotide pairs listed in Table 1 (below). For quantification, standard curves were obtained using serially diluted cDNA amplified in the same qRT-PCR run. The melting temperature (Tm) of the amplified products was measured to confirm the specificity of the reaction conditions. Cycling conditions were as follows: 95° C. for 10 minutes, 95° C. for 10 seconds, 62° C. for 15 seconds, and 72° C. for 25 seconds for a total of 40 cycles. Each sample was analyzed in triplicate. mRNA expression level for target gene was normalized to GAPDH. The results are based the amount of target, normalized to an endogenous reference (IACTB) and relative to a calibrator, as calculated by 2-ΔΔCT. All samples were run in triplicate. The expression levels of target genes were expressed as mRNA relative units.
(§3) The potential ability of these 31 molecules to induce SAMD9 expression in cell cultures was then scrutinized.

[2] = test system: EGR1; test: EGR1 RNA expression by qRT-PCR in primary fibroblasts; settings: 5 μM over 72 hours, different time points (FIG. 3)
Experimental: (§4) Primary fibroblasts were isolated from human adult skin and were grown in High Glucose DMEM, 10% Fetal Bovine Serum, L-glutamine and Pen-Strep. Medium was changed every 2-3 days. Cells were used at passage 2-3.
as §1
as §2, with “Cycling conditions were as follows: 95° C. for 10 minutes, 95° C. for 10 seconds, 62° C. for 15 seconds, and 72° C. for 25 seconds for a total of 40 cycles.” left out, “All samples were run in triplicate.” left out

[3] = test system: SAMD9 promoter; test: High-throughput luciferase reporter screen in HeLa line stably expressing 585 bp SAMD9 promoter fragment; settings: Homo sapiens, HeLa; fold increase in promoter activity by luciferase assay vs cells treated with vehicle only; test drugs 10 μM, 24 hours; read-out: SAMD9 expression fold change in HeLa reporter assay
Experimental: HeLa cell lines stably expressing the constructs were generated under neomycin selection. Briefly, pGL4.17 containing a SAMD9 promoter fragment spanning 585 bp upstream to the TSS and an empty pGL4.17 vector were transfected into HeLa cells. Forty eight hours after transfection, standard medium was replaced with medium containing 600 μg/ml G418 (Sigma-Aldrich), cells were kept under G418 selection and the selective medium was replaced approximately every 2-3 days. After two passages, colonies of stable cells were isolated, expanded and frozen for further use.
Test drugs were dispensed at a concentration of 10 μM by a robotic system into 96-well plates containing 9000 cells/well expressing the pGL4.17 reporter construct carrying a 585 bp SAMD9 promoter fragment operably linked to luciferase gene or the empty pGL4.17 luciferase construct (Promega cat. no. E6721). Medium was removed after 24 hours and the cells subjected to Steady-Glo luciferase lysis-substrate solution assay (Promega) as described above. Liquid handling was done with the Tecan (Tecan) Freedom 150 (Robotic & MCA liquid Handling System) and the luciferase reading was done with a robot integrated Tecan Infinite® M1000 reader.
This cell line was then used to robotically screen a total of 1496 compounds obtained from the National Cancer Institute Diversity Set III and Oncology Drugs Set III small molecule libraries.

[4] = test system: SAMD9; test: SAMD9 RNA expression by qRT-PCR in primary fibroblasts; settings: for SAMD9 expression in primary fibroblasts: 5 μM, 24 hours, qRT-PCR vs DMSO (FIG. 1C); for Dose and time dependence of SAMD9 up-regulation: primary fibroblasts, 5 μM over 72 hours, 1, 2, 5, 10 μM (FIGS. 2A-B)
Experimental: as §4, §1, §2, §3

Compound	SAMD9 expression in HeLa cells [1]	SAMD9 expression fold change in HeLa cells [1] [fold]	EGR1 expression in primary fibroblast cells [2]	fold induction at 10 µM [3]	SAMD9 expression in primary fibroblasts [4]	Dose and time dependence of SAMD9 up-regulation [4]
Cc1c2ccnc(C(N)=O)c2c(C)c2c1[nH]c1ccccc12.Cl [Compound 335142, 6H-Pyrido[4,3-b]carbazole-1-carboxamide, 5,11-dimethyl-, monohydrochloride]	significantly induce	6.44	significantly down-regulated	2.95	significantly induce	both dose and time dependent
CCCN1c2ccc(N)cc2S(=O)(=O)c2cc(Cl)cc(Cl)c21 [Compound 629971, 7,9-dichloro-5,5-dioxo-10-propylphenothiazin-3-amine]	significantly induce	20.5	significantly down-regulated	4.85	significantly induce	both dose and time dependent
